Consider 25 molecules from publication PMC12304826, “Redirecting the Peptide Cleavage Causes Protease Inactivation” (Angewandte Chemie (International Ed. in English), 2025).

The structures appear in SMILES notation.

One test addresses T1, human cathepsin B (Homo sapiens, UniProt P07858).
T1 construct: purchased Calbiochem, Darmstadt, Germany
Kind of test: Cathepsin B inhibition assay (chromogenic substrate Cbz-Arg-Arg-pNA). To be noted: 20 µM inhibitor, duplicate measurements, product formation after 60 min; read-out: r.a. (%), residual enzymatic activity of cathepsin B. It counts as biochemical. The procedure: To get a first insight into the interaction with human cathepsin B, the inhibition of the enzyme‐catalyzed cleavage of a chromogenic peptide substrate was examined. […] Active compounds were subjected to kinetic measurements at five different concentrations (Tables 1 and S1).
Figure 1 Cathepsin B‐catalyzed hydrolysis of 500 µM (= 0.45 K m) of Cbz‐Arg‐Arg‐p‐nitroanilide in the absence (black) or presence of increasing concentrations of carbamate 4 (from top to bottom: 0.4, 0.8, 1.2, 1.6, and 2.0 µM).
1. Enzyme Inhibition Assays and Kinetic Data of Inhibition of Cathepsins B, L, K and S General. Human cathepsins were assayed either fluorimetrically or spectrophotometrically as noted below. The 10 mM inhibitor solutions were prepared in DMSO. The final concentration of DMSO in all assays was 2%. Non-linear regressions were conducted with GraFit 5. Residual cathepsin activity at an inhibitor concentration of 20 µM was determined from duplicate measurements based on the product formation after 60 min. Concentration dependent measurements were performed in duplicate measurements with five different inhibitor concentrations when the residual cathepsin activity in the presence of 20 µM inhibitor was below 70% (cathepsin B) or below 50% (cathepsins cathepsins L, K, and S). Progress curves were monitored for 60 min. First-order rate constants, kobs, were determined by non-linear regression following the equation [P] = vi × (1 – exp(-kobs × t))/kobs + d, where [P] is the product concentration, vi is the initial product formation rate, kobs is the observed first-order rate constant, and d is the offset. Mean values of kobs were plotted versus corresponding inhibitor concentrations [I], and second-order rate constants of inactivation, kinac/Ki, were obtained by linear regression. The equation kobs/[I] = (kinac/Ki)/(1 + [S]/Km) was used, where [S] is the substrate concentration and Km is the Michaelis-Menten constant. Standard errors (SE) refer to the linear regression.
Cathepsin B inhibition assay.[1] Human isolated cathepsin B (Calbiochem, Darmstadt, Germany) was assayed spectrophotometrically on a Cary 50 or 100 Bio, Varian, at 405 nm. The reactions were followed at 37 °C. Assay buffer was 100 mM sodium phosphate buffer pH 6.0, 100 mM NaCl, 5 mM EDTA, 0.01% Brij 35. A stock solution of human cathepsin B of 1.81 mg/mL or 0.47 mg/mL in 20 mM sodium acetate buffer pH 5.0, 1 mM ethylenediaminetetraactic acid (EDTA) was diluted 1:500 with assay buffer containing 5 mM dithiothreitol (DTT) and incubated for 30 min at 37 °C. A 100 mM stock solution of the para-nitroaniline (pNA)-based chromogenic substrate Cbz-Arg-Arg-pNA was prepared in DMSO.
The final concentration of the substrate was 500 μM (= 0.45 Km). Into a cuvette containing 960 μL assay buffer, inhibitor solution and DMSO in a total volume of 15 μL, and 5 μL of the substrate solution were added and mixed. The reaction was initiated by adding 20 μL of the enzyme solution. […]
As for `COC(=O)C(Cc1ccccc1)NC(=O)C(CC(C)C)NC(=O)Oc1ccc(Cl)cc1` (centres unmarked) [Compound 3], the remaining activity at 20 µM is 97%.
For `CC(C)C[C@H](NC(=O)Oc1ccc(Cl)cc1)C(=O)N[C@@H](Cc1ccccc1)C(=O)OC(C)(C)C` [Compound 2], the remaining activity at 20 µM was found to be 92%.
Same read-out and setting: the same measure for `CC(C)C[C@H](NC(=O)Nc1ccc(Cl)cc1)C(=O)N[C@@H](Cc1ccccc1)C(=O)O` [Compound 18]: 90%; for `CC(C)CC(NC(=O)Oc1ccc(NC(=O)C(c2ccccc2)c2ccccc2)c(Br)c1)C(=O)N1CCCC1C(=O)O` (centres unmarked) [Compound 27]: ≤ 2%.
Still for that read-out and setting: the result for `O=C(NC(CC1CCCCC1)C(=O)NC(Cc1ccccc1)C(=O)O)Oc1ccc(NC(=O)C(Cc2ccccc2)Cc2ccccc2)c(Cl)c1` (centres unmarked) [Compound 31] reads ≤ 2%.
Still for that read-out and setting: the result for `O=C(NC(CC1CCCCC1)C(=O)NC(Cc1ccccc1)C(=O)O)Oc1ccc(Cl)cc1` (centres unmarked) [Compound 7] reads ≤ 2%; that for `CC(C)CC(NC(=O)Oc1ccc(NC(=O)C(c2ccccc2)c2ccccc2)c(Cl)c1)C(=O)N1CCCC1C(=O)O` (centres unmarked) [Compound 28], ≤ 2%; that for `CC(C)C[C@H](NC(=O)Oc1ccc(NC(=O)Cc2ccccc2)c(Cl)c1)C(=O)N1CCC[C@H]1C(=O)O` [Compound 24], ≤ 2%.
Consider `CC(C)CC(CNC(=O)Oc1ccc(Cl)cc1)C(=O)N[C@H](Cc1ccccc1)C(=O)O` (some centres unmarked) [Compound 5], for which the remaining activity at 20 µM amounted to 11%.
On the same count and under the same terms, the result for `CC(C)C[C@H](NC(=O)Oc1ccc(Cl)cc1)C(=O)N[C@@H](Cc1ccccc1)C(=O)O` [Compound 4] reads ≤ 2%; that for `CC(C)C[C@H](NC(=O)Oc1cccc(Cl)c1)C(=O)N1CCC[C@H]1C(=O)O` [Compound 23], ≤ 2%; that for `CC(C)CC(NC(=O)Oc1ccc(Cl)c(NC(=O)C(c2ccccc2)c2ccccc2)c1)C(=O)N1CCCC1C(=O)O` (centres unmarked) [Compound 22], ≤ 2%.
For `CC(C)C[C@H](NC(=O)Nc1ccc(Cl)cc1)C(=O)N1CCC[C@H]1C(=O)O` [Compound 19], the remaining activity at 20 µM was 95%.
Consider `CC(C)CC(NC(=O)Oc1ccccc1)C(=O)NC(Cc1ccccc1)C(=O)O` (centres unmarked) [Compound 1], for which the remaining activity at 20 µM is 23%.
Take `CC(C)CC(OC(=O)Nc1ccc(Cl)cc1)C(=O)N[C@@H](Cc1ccccc1)C(=O)O` (some centres unmarked) [Compound 16]: the remaining activity at 20 µM was 91%.
On the same count and under the same terms, the same measure for `CC(C)CC(NC(=O)Oc1ccc(NC(=O)c2ccc(-c3ccccc3)cc2)c(Cl)c1)C(=O)N1CCCC1C(=O)O` (centres unmarked) [Compound 25]: ≤ 2%; for `CC(C)C[C@H](NC(=O)Oc1ccc(Cl)cc1)C(=O)N1CCC[C@H]1C(=O)O` [Compound 8]: 4%.
`CC(C)C[C@H](NC(=O)Oc1ccc(-c2ccccc2)c(NC(=O)Cc2ccccc2)c1)C(=O)N1CCC[C@H]1C(=O)O` [Compound 21]: the remaining activity at 20 µM was ≤ 2%.
Take `CC(C)CC(CNC(=O)Oc1ccc(Cl)cc1)C(=O)N1CCC[C@@H]1C(=O)O` (some centres unmarked) [Compound 9]: the remaining activity at 20 µM was found to be 53%.
Still for that read-out and setting: the result for `CC(C)CC(OC(=O)Nc1ccc(Cl)cc1)C(=O)N1CCC[C@H]1C(=O)O` (some centres unmarked) [Compound 17] reads 68%; that for `CC(C)C[C@H](NC(=O)Oc1ccc(Cl)c(NC(=O)Cc2ccccc2)c1)C(=O)N1CCC[C@H]1C(=O)O` [Compound 20], ≤ 2%; that for `CC(C)C[C@H](NC(=O)Oc1ccc(Cl)cc1)C(=O)N1CCCC[C@H]1C(=O)O` [Compound 10], 5%.
As to `O=C(NC(CC1CCCCC1)C(=O)NC(Cc1ccccc1)C(=O)O)Oc1ccc(NC(=O)C(c2ccccc2)c2ccccc2)c(Cl)c1` (centres unmarked) [Compound 30], the remaining activity at 20 µM is ≤ 2%.
For the molecule `CC(C)CC(NC(=O)Oc1ccc(NC(=O)C(c2ccccc2)c2ccccc2)c(Cl)c1)C(=O)NC(Cc1ccccc1)C(=O)O` (centres unmarked) [Compound 29], the remaining activity at 20 µM was ≤ 2%.

The test is the same for the next values; noted with them: 31 versus 7.
As to `O=C(NC(CC1CCCCC1)C(=O)NC(Cc1ccccc1)C(=O)O)Oc1ccc(NC(=O)C(Cc2ccccc2)Cc2ccccc2)c(Cl)c1` (centres unmarked) [Compound 31], the “fold lower K i value in comparison with 7” value is “more than 20 fold”.

Still in this test, the particulars now being: 1 h, pH 6, five inhibitor concentrations, duplicates, 60 min progress curves, 500 µM Cbz-Arg-Arg-pNA, pH 6.0, 37 °C; read-out: k inac/K i ± SE, second-order rate constant of enzyme inactivation, cathepsin B.
On to `CC(C)CC(NC(=O)Oc1ccc(NC(=O)C(c2ccccc2)c2ccccc2)c(Br)c1)C(=O)N1CCCC1C(=O)O` (centres unmarked) [Compound 27], for which the kinact/KI worked out at 6000 ± 100 M⁻¹ s⁻¹.
Same read-out and setting: the same measure for `O=C(NC(CC1CCCCC1)C(=O)NC(Cc1ccccc1)C(=O)O)Oc1ccc(NC(=O)C(Cc2ccccc2)Cc2ccccc2)c(Cl)c1` (centres unmarked) [Compound 31]: 23600 ± 1900 M⁻¹ s⁻¹.
The same measure, in the same setting: the result for `O=C(NC(CC1CCCCC1)C(=O)NC(Cc1ccccc1)C(=O)O)Oc1ccc(Cl)cc1` (centres unmarked) [Compound 7] reads 2010 ± 110 M⁻¹ s⁻¹; that for `CC(C)CC(NC(=O)Oc1ccc(NC(=O)C(c2ccccc2)c2ccccc2)c(Cl)c1)C(=O)N1CCCC1C(=O)O` (centres unmarked) [Compound 28], 8180 ± 290 M⁻¹ s⁻¹; that for `CC(C)C[C@H](NC(=O)Oc1ccc(NC(=O)Cc2ccccc2)c(Cl)c1)C(=O)N1CCC[C@H]1C(=O)O` [Compound 24], 6530 ± 310 M⁻¹ s⁻¹.
For the molecule `CC(C)CC(CNC(=O)Oc1ccc(Cl)cc1)C(=O)N[C@H](Cc1ccccc1)C(=O)O` (some centres unmarked) [Compound 5], the kinact/KI was found to be 108 ± 5 M⁻¹ s⁻¹.
Still for that read-out and setting: the same measure for `CC(C)C[C@H](NC(=O)Oc1ccc(Cl)cc1)C(=O)N[C@@H](Cc1ccccc1)C(=O)O` [Compound 4]: 745 ± 5 M⁻¹ s⁻¹; for `CC(C)C[C@H](NC(=O)Oc1cccc(Cl)c1)C(=O)N1CCC[C@H]1C(=O)O` [Compound 23]: 2760 ± 50 M⁻¹ s⁻¹.
For the molecule `CC(C)CC(NC(=O)Oc1ccc(Cl)c(NC(=O)C(c2ccccc2)c2ccccc2)c1)C(=O)N1CCCC1C(=O)O` (centres unmarked) [Compound 22], the kinact/KI stood at 3830 ± 70 M⁻¹ s⁻¹.
Regarding `CC(C)CC(NC(=O)Oc1ccccc1)C(=O)NC(Cc1ccccc1)C(=O)O` (centres unmarked) [Compound 1], the kinact/KI came out at 157 ± 13 M⁻¹ s⁻¹.
The same measure, in the same setting: the same measure for `CC(C)CC(NC(=O)Oc1ccc(NC(=O)c2ccc(-c3ccccc3)cc2)c(Cl)c1)C(=O)N1CCCC1C(=O)O` (centres unmarked) [Compound 25]: 3640 ± 60 M⁻¹ s⁻¹; for `CC(C)C[C@H](NC(=O)Oc1ccc(Cl)cc1)C(=O)N1CCC[C@H]1C(=O)O` [Compound 8]: 711 ± 40 M⁻¹ s⁻¹; for `CC(C)C[C@H](NC(=O)Oc1ccc(-c2ccccc2)c(NC(=O)Cc2ccccc2)c1)C(=O)N1CCC[C@H]1C(=O)O` [Compound 21]: 1340 ± 20 M⁻¹ s⁻¹.
Still for that read-out and setting: the same measure for `CC(C)CC(CNC(=O)Oc1ccc(Cl)cc1)C(=O)N1CCC[C@@H]1C(=O)O` (some centres unmarked) [Compound 9]: 30.3 ± 4.1 M⁻¹ s⁻¹.
Same read-out and setting: the result for `CC(C)C[C@H](NC(=O)Oc1ccc(Cl)c(NC(=O)Cc2ccccc2)c1)C(=O)N1CCC[C@H]1C(=O)O` [Compound 20] reads 2860 ± 50 M⁻¹ s⁻¹; that for `CC(C)C[C@H](NC(=O)Oc1ccc(Cl)cc1)C(=O)N1CCCC[C@H]1C(=O)O` [Compound 10], 933 ± 40 M⁻¹ s⁻¹.
For `O=C(NC(CC1CCCCC1)C(=O)NC(Cc1ccccc1)C(=O)O)Oc1ccc(NC(=O)C(c2ccccc2)c2ccccc2)c(Cl)c1` (centres unmarked) [Compound 30], the kinact/KI is > 10000 M⁻¹ s⁻¹.
As to `CC(C)CC(NC(=O)Oc1ccc(NC(=O)C(c2ccccc2)c2ccccc2)c(Cl)c1)C(=O)NC(Cc1ccccc1)C(=O)O` (centres unmarked) [Compound 29], the kinact/KI was found to be 11300 ± 600 M⁻¹ s⁻¹.

Staying with this test, now noted: 1 h, pH 6, read-out: k inac/K i ± SE, second-order rate constant of enzyme inactivation, cathepsin B.
In the case of `CC(C)C[C@H](NC(=O)Oc1ccc(NC(=O)N(Cc2ccccc2)Cc2ccccc2)c(Br)c1)C(=O)N1CCC[C@H]1C(=O)O` [Compound 26], the kinact/KI came to 2660 ± 80 M⁻¹ s⁻¹.

Staying with this test, now noted: 1 h; five inhibitor concentrations, duplicates, 60 min progress curves, 500 µM Cbz-Arg-Arg-pNA, pH 6.0, 37 °C; read-out: k inac/K i ± SE, second-order rate constant of enzyme inactivation, cathepsin B.
Take `CC(C)CC(OC(=O)Nc1ccc(Cl)cc1)C(=O)N1CCC[C@H]1C(=O)O` (some centres unmarked) [Compound 17]: the kinact/KI was determined as 10.6 ± 1.6 M⁻¹ s⁻¹.

Staying with this test, now noted: calculated from kinac/Ki values and separately obtained Ki values.
As to `O=C(NC(CC1CCCCC1)C(=O)NC(Cc1ccccc1)C(=O)O)Oc1ccc(NC(=O)C(Cc2ccccc2)Cc2ccccc2)c(Cl)c1` (centres unmarked) [Compound 31], the kinac was 0.0104 s⁻¹.
Consider `O=C(NC(CC1CCCCC1)C(=O)NC(Cc1ccccc1)C(=O)O)Oc1ccc(Cl)cc1` (centres unmarked) [Compound 7], for which the kinac was 0.0200 s⁻¹.

Still in this test, the particulars now being: five inhibitor concentrations, duplicates, 60 min progress curves, 500 µM Cbz-Arg-Arg-pNA, pH 6.0, 37 °C.
As to `O=C(NC(CC1CCCCC1)C(=O)NC(Cc1ccccc1)C(=O)O)Oc1ccc(NC(=O)C(c2ccccc2)c2ccccc2)c(Cl)c1` (centres unmarked) [Compound 30], the “k inac/K i ± SE, second-order rate constant of enzyme inactivation, cathepsin B” value is 13,800 M^−1s^−1.

The same test, now with this note: non-covalent enzyme-inhibitor complex; read-out: K i value.
Consider `O=C(NC(CC1CCCCC1)C(=O)NC(Cc1ccccc1)C(=O)O)Oc1ccc(NC(=O)C(Cc2ccccc2)Cc2ccccc2)c(Cl)c1` (centres unmarked) [Compound 31], for which the Ki is 0.441 µM.

Still in this test, the particulars now being: non-linear regression of initial rates vi versus inhibitor concentration; read-out: Ki ± SE.
On to `O=C(NC(CC1CCCCC1)C(=O)NC(Cc1ccccc1)C(=O)O)Oc1ccc(Cl)cc1` (centres unmarked) [Compound 7], for which the Ki turned out to be 9.96 µM.
